Results published in ChEMBL document CHEMBL1687887, “Evolution of potent and stable placental-growth-factor-1-targeting CovX-bodies from phage display peptide discovery” (J Med Chem, 2011).
Activity calls are given as the source filed them. The rule behind the calls is not given here. Numbered stars: 1 amine (or outer) side, 2 acyl side, 3 side chain; on linkers, the order of the positions; unused ones are H or OH. Bridge positions count the residues as written; N and C are the ends. Square brackets hold non-standard residues; d marks the D form. Peptide text beside a SMILES is read from it. * marks the point of attachment. X2 = NCCCC[C@H](N[*:1])C(=O)NC(=O)COCC(=O)[*:2]; X1 = O=C(COCC(=O)*)Nc1ccc(CCC(=O)N2CCC2=O)cc1; X3 = O=C(CCc1ccc(N*)cc1)N1CCC1=O; NMeE = CN[C@@H](CCC(=O)O)C(=O)O; Aib = CC(C)(N)C(=O)O

Columns and labels:
Placenta growth factor [1] = target: T1, Placenta growth factor (Homo sapiens, UniProt P49763); assay: Inhibition of human PlGF-1-VEGFR-1 interaction by ELISA
T1 sequence (P49763 whole entry): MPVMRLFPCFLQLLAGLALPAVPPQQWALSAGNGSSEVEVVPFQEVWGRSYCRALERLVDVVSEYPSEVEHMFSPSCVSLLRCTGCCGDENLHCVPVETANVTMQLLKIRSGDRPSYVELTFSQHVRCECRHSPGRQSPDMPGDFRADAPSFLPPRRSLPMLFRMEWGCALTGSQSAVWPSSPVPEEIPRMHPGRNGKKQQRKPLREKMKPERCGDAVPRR

[2] = Terminal half life in Swiss Webster mouse at 10 mg/kg, iv; assay type: ADME, organism-based; design: dose 10 mg/kg, route intravenous; details: in vivo, read-out: beta t1/2 (converted)
Placenta growth factor [3] = target: T1, Placenta growth factor; assay: Binding affinity to human PlGF-1; details: read-out: Kd
Placenta growth factor [4] = target: T2, Placenta growth factor (Mus musculus, UniProt P49764); assay: Binding affinity to mouse PlGF
T2 sequence (P49764 whole entry): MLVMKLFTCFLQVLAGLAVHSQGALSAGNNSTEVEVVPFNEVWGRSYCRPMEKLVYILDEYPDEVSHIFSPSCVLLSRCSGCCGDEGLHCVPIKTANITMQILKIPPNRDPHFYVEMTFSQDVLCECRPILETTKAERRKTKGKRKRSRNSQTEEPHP

Placenta growth factor [5] = target: T1, Placenta growth factor; assay: Binding affinity to human PlGF-2
[6] = Stability of the compound in presence of cathepsin B; assay type: ADME
[7] = Terminal half life in cynomolgus monkey at 10 mg/kg, iv; assay type: ADME, organism-based, Macaca fascicularis; design: dose 10 mg/kg, route intravenous; details: in vivo, read-out: beta t1/2 (converted)
Placenta growth factor [8] = target: T1, Placenta growth factor; assay: Inhibition of human PlGF-2-VEGFR-1 interaction by ELISA
[9] = target: T3, Placenta growth factor (Mus musculus) (UniProt P49764); assay: Inhibition of mouse PlGF interaction with human VEGFR-1 by ELISA
T3 sequence (whole entry): T2 sequence (P49764 whole entry)

[10] = target: T3, Placenta growth factor (Mus musculus); assay: (§1) Inhibition of mouse PlGF-VEGFR-1 interaction by ELISA
[11] = target: T4, Placenta growth factor (Homo sapiens) (UniProt P49763); assay: Binding affinity to human PlGF-1 by surface plasmon resonance study
T4 sequence (whole entry): T1 sequence (P49763 whole entry)

Placenta growth factor [12] = target: T2, Placenta growth factor; assay: as §1
[13] = Stability in Swiss Webster mouse serum assessed as functional compound remaining after 6 hrs; assay type: ADME, cell-free; details: read-out: Stability
[14] = target: T4, Placenta growth factor (Homo sapiens); assay: Binding affinity to human PlGF-2 by surface plasmon resonance study

IC50 (Placenta growth factor [1]) [nM] | half-life [2] [h] | Kd (Placenta growth factor [3]) [nM] | Kd (Placenta growth factor [4]) [nM] | Kd (Placenta growth factor [5]) [nM] | IC50 (Placenta growth factor [12]) [nM] | remaining at 6 h [13] [%] | SMILES | other results
3 | 24 | 8 |  |  |  |  | CC[C@H](C)[C@@H]1NC(=O)[C@H](Cc2ccc(O)cc2)NC(=O)[C@H](Cc2cnc[nH]2)NC(=O)[C@@H](NC(=O)[C@@H](NC(=O)[C@H](CCC(=O)O)N(C)C(=O)[C@H](Cc2ccccc2)NC(=O)[C@H](C)NC(=O)[C@H](C)NC(=O)[C@H](CC(=O)O)NC(=O)[C@H](C)NC(C)=O)C(C)C)CSSC[C@@H](C(=O)N[C@H](C(=O)N[C@@H](CCCNC(=N)N)C(=O)N[C@@H](Cc2ccc(O)cc2)C(N)=O)[C@@H](C)O)NC(=O)[C@H](Cc2cnc[nH]2)NC(=O)[C@@H]2CCCN2C(=O)[C@H](CC(C)C)NC(=O)[C@H](CCCCNC(=O)COCC(=O)Nc2ccc(CCC(=O)N3CCC3=O)cc2)NC1=O (Ac-ADAAF[NMeE]VCHYIK(X1)LPHCTRY-NH2; disulfide 8-16) | 
0.4 | 75 | 0.1 | 70 | 9 |  |  | CC[C@H](C)[C@@H]1NC(=O)[C@H](Cc2ccc(O)cc2)NC(=O)[C@H](Cc2cnc[nH]2)NC(=O)[C@@H](NC(=O)[C@@H](NC(=O)[C@H](CCC(=O)O)N(C)C(=O)[C@H](Cc2ccccc2)NC(=O)[C@H](C)NC(=O)[C@H](C)NC(=O)[C@H](CC(=O)O)NC(=O)[C@H](C)NC(C)=O)C(C)C)CSSC[C@@H](C(=O)N[C@H](C(=O)N[C@@H](CCCCNC(C)=O)C(=O)NC(C)(C)C(N)=O)[C@@H](C)O)NC(=O)[C@H](Cc2cnc[nH]2)NC(=O)C(C)(C)NC(=O)[C@H](CC(C)C)NC(=O)[C@H](CCCCNC(=O)COCC(=O)Nc2ccc(CCC(=O)N3CCC3=O)cc2)NC1=O (Ac-ADAAF[NMeE]VCHYIK(X1)L[Aib]HCTK(Ac)[Aib]-NH2; disulfide 8-16) | Stability [6]: Stable; half-life [7]: 78 h
1 | 14 | 0.3 |  |  |  |  | CC[C@H](C)[C@@H]1NC(=O)[C@H](Cc2ccc(O)cc2)NC(=O)[C@H](Cc2cnc[nH]2)NC(=O)[C@@H](NC(=O)[C@@H](NC(=O)[C@H](CCC(=O)O)NC(=O)[C@H](Cc2ccccc2)NC(=O)[C@H](C)NC(=O)[C@H](C)NC(=O)[C@H](CC(=O)O)NC(C)=O)C(C)C)CSSC[C@@H](C(=O)N[C@H](C(=O)N[C@@H](CCCN=C(N)N)C(=O)N[C@@H](Cc2ccc(O)cc2)C(N)=O)[C@@H](C)O)NC(=O)[C@H](Cc2cnc[nH]2)NC(=O)[C@@H]2CCCN2C(=O)[C@H](CC(C)C)NC(=O)[C@H](CCCCNC(=O)COCC(=O)Nc2ccc(CCC(=O)N3CCC3=O)cc2)NC1=O (Ac-DAAFEVCHYIK(X1)LPHCTRY-NH2; disulfide 7-15) | 
2 |  | 4 | 400 | 100 |  |  | CSCC[C@H](NC(=O)[C@@H](NC(=O)[C@H](CCCCN)NC(=O)[C@@H]1CSSC[C@H](NC(=O)[C@@H](NC(=O)[C@H](CC(=O)O)NC(=O)[C@H](Cc2ccccc2)NC(C)=O)C(C)C)C(=O)N[C@@H](CCCCN)C(=O)N[C@@H](Cc2c[nH]c3ccccc23)C(=O)N[C@@H](C(C)C)C(=O)N[C@@H]([C@@H](C)O)C(=O)N[C@@H](CC(C)C)C(=O)N2CCC[C@H]2C(=O)N[C@@H](Cc2cnc[nH]2)C(=O)N1)C(C)C)C(=O)N[C@@H](CCCCN)C(=O)NC(=O)COCC(=O)Nc1ccc(CCC(=O)N2CCC2=O)cc1 (Ac-FDVCKWVTLPHCKVM[X2]-X3; disulfide 4-12) | IC50 (Placenta growth factor [8]): 150 nM; inhibition [9]: inactive; inhibition [10]: inactive
4 |  | 5 |  |  | 4 | < 5 | CSCC[C@H](NC(=O)[C@H](CCCCNC(=O)COCC(=O)Nc1ccc(CCC(=O)N2CCC2=O)cc1)NC(=O)[C@H](CCCCNC(C)=O)NC(=O)[C@@H]1CSSC[C@H](NC(=O)[C@@H](NC(=O)[C@H](CC(=O)O)NC(=O)[C@H](Cc2ccccc2)NC(C)=O)C(C)C)C(=O)N[C@@H](CC(N)=O)C(=O)N[C@@H](Cc2c[nH]c3ccccc23)C(=O)N[C@@H](C(C)C)C(=O)N[C@@H]([C@@H](C)O)C(=O)N[C@@H](CC(C)C)C(=O)N2CCC[C@H]2C(=O)N[C@@H](Cc2cnc[nH]2)C(=O)N1)C(N)=O (Ac-FDVCNWVTLPHCK(Ac)K(X1)M-NH2; disulfide 4-12) | Activity [11]: Active; Activity [14]: Active
 |  | 4 |  |  | 54 | 11 | CSCC[C@H](NC(=O)[C@@H](NC(=O)[C@H](CCCCNC(=O)COCC(=O)Nc1ccc(CCC(=O)N2CCC2=O)cc1)NC(=O)[C@@H]1CSSC[C@H](NC(=O)[C@@H](NC(=O)[C@H](CC(=O)O)NC(=O)[C@H](Cc2ccccc2)NC(C)=O)C(C)C)C(=O)N[C@@H](CC(N)=O)C(=O)N[C@@H](Cc2c[nH]c3ccccc23)C(=O)N[C@@H](C(C)C)C(=O)N[C@@H]([C@@H](C)O)C(=O)N[C@@H](CC(C)C)C(=O)N2CCC[C@H]2C(=O)N[C@@H](Cc2cnc[nH]2)C(=O)N1)C(C)C)C(N)=O (Ac-FDVCNWVTLPHCK(X1)VM-NH2; disulfide 4-12) | 
